Experimental data as given in patent publication US20020132276A1, “FACS method for detecton of GPIIb/IIIa inhibitor dependent activators in plasma samples” (priority 1999, published 2002).

Assays:
[1] = system: platelet CD62; experiment: Detection of ADP as a GPIIb/IIIa DDPAS by DDPASFCA; type: cell-based, human; settings: for + compound Med F12: + Compound A 1 μM; for no compound Med F12: no Compound A; for Delta Med F12: with minus without Compound A 1 μM
Experimental: Adenosine diphosphate (ADP) was evaluated as a possible DDPAS as follows: Compound A (final concentration 1 μM) or vehicle was added to 25 μL of freshly prepared PRP in wells of a 96-well microtiter plate. Another set of wells received vehicle. After 10 minutes, 2.5 μL of from each well was transferred to microtiter wells containing only 20 μL of anti-CD62-PE. After incubation for 30 minutes, samples were analyzed by flow cytometry as in Example 1.

[2] = system: platelet CD62; experiment: DDPASFCA in alternative microtiter plates (Costar Serocluster #3897 versus #3898); type: cell-based, human; settings: with minus without Compound A 200 nM
Experimental: ADP and DPC38 were used as sources of DDPASs. 2 μL of citrated PRP (DPC3) was added to either Costar Serocluster® 96 well V-bottom microtiterplates (#3897) or #3898 microtiter plates (Costar Serocluster®) (rated as “hydrophilic” in nature by the manufacturer). Platelets were then treated with and without Compound A (200 nM) with the indicated concentrations of ADP. Similarly, DDPAS positive PRP (DPC38) was added to wells of both types of plates and treated with and without Compound A (200 nM). Reactions were incubated without shaking for 120 minutes. After this time, 20 μL of phycoerythrin conjugated anti-CD62 (anti-CD62-PE, Bectin Dickinson) was added. After 30 minutes the samples were diluted with 150 μL flow buffer and bound anti-CD62-PE measured as described in Example 1.
Delta SC=Delta Fluorescence for Costar Serocluster microtiter plates
Delta H=Delta Fluorescence for H3898 microtiter plates

[3] = platelet donor DPC3, ADP 100 uM

With `Nc1ncnc2c1ncn2[C@@H]1O[C@H](COP(=O)(O)OP(=O)(O)O)[C@@H](O)[C@H]1O` [ADP, Adenosine diphosphate] the “+ compound Med F12” value ([1]; ADP 0.4 μM final) was 20, the “no compound Med F12” value ([1]; ADP 0.4 μM final) was 14 and the “Delta Med F12” value ([1]; ADP 0.4 μM final) was 5. The “+ compound Med F12” value ([1]; ADP 2 μM final) was 89, the “no compound Med F12” value ([1]; ADP 2 μM final) was 48 and the “Delta Med F12” value ([1]; ADP 2 μM final) was 40. The “+ compound Med F12” value ([1]; ADP 10 μM final) was 208, the “no compound Med F12” value ([1]; ADP 10 μM final, PRP, 10 minutes) was 126 and the “Delta Med F12” value ([1]; ADP 10 μM final) was 82. For the same compound, the “Delta CS (Delta Fluorescence for Costar Serocluster microtiter plates)” value ([2]; platelet donor DPC3, ADP 10 uM) was 89, the “Delta H (Delta Fluorescence for H3898 microtiter plates)” value ([2]; platelet donor DPC3, ADP 10 uM) was 157 and the “Delta CS (Delta Fluorescence for Costar Serocluster microtiter plates)” value [2, 3] was 82. The “Delta H (Delta Fluorescence for H3898 microtiter plates)” value [2, 3] was 168.
